# Laboratory results published in patent US12359238B2 (priority 2017, dated 2025).
# How the values were obtained:
# [1] = target: T1, FGM (FAD-GDH-MCD): Burkholderia cepacia FAD-GDH alpha subunit fused to minimal cytochrome domain MCR-2 of MamP (magnetoovoid bacterium MO-127), full DNA constru (Burkholderia lata, UniProt Q397F4); format: biochemical
# T1 construct: gamma co-expressed; E. coli BL21
# [2] = target: FGM-S247PCA: FGM (Burkholderia cepacia FAD-GDH-MCD) variant S247PrK (S247X, SEQ ID NO: 20), EDC-NHS coupled to PCA linker (Burkholderia lata, UniProt Q397F4); conditions: read-out: KM^app (electrochemical); glucose; 300 mV vs. Ag/AgCl, 100 mM acetate buffer pH=5.0, RT; non-linear fit
# Protocol: (§1) The current from each glucose concentration (10 μM-10 mM) was measured in triplicates; curves of the mean currents are presented with standard deviations. […] The current was measured in triplicates and the mean current values were used for the linear regression and are presented with error bars (FIG. 18H);
# (§2) Pyrrolysyl orthogonal translation system (pylOTS) DNA sequence was amplified from the pEVOL plasmid using polymerase chain reaction (PCR) and cloned into the backbone of pec86 plasmid using Gibson's assembly to generate a new plasmid called pec86-pylOTS (FIG. 15A). pylOTS allows the continuous expression of an orthogonal translation system (orthogonal tRNA and aminoacyl tRNA synthetase) for incorporation of PrK (1) using the amber (TAG) stop codon suppression, while the pec86 plasmid is responsible for the continuous expression of E. coli cytochrome c maturation system. […] Four different TAG mutants were planned using site-directed mutagenesis, according to GDH crystal structure. Our guiding rational for mutation sites was to control the enzyme orientation in a manner that will allow proximity of 14 Å or less between the FAD or heme site and the electrode, without interference with the protein structure and correct folding. The sites that were tested were R42TAG and S247TAG, which are in close proximity to the FAD binding-site, while T558TAG (FIG. 11C, right panel) is in a close proximity to the heme domain.
# (§3) The azide in (2) was clicked to the alkyne residue of (FIG. 11B, 1). 3 μM of protein sample was mixed with 400 μM (2), 2 mM tris pH=8.2, 10 mM KCl, 1 mM Cu(I), 1.2 mM THPTA, 2.5 mM NaAsc and 10% Dimethyl sulfoxide (DMSO). The reaction was incubated for 1 h in the dark at room temperature with shaking, then transferred to 4° C. for two days before use.
# [3] = target: GDH-S247PDAz: Burkholderia cepacia FAD-GDH variant S247PrK lacking the MCD domain, clicked to PDAz linker (Burkholderia lata, UniProt Q397F4); conditions: read-out: KM^app (electrochemical); glucose; 300 mV vs. Ag/AgCl, 100 mM acetate buffer pH=5.0, RT; non-linear fit
# Protocol: as §1, §2, §3
# [4] = system: FGM-T558PDAz: FGM (Burkholderia cepacia FAD-GDH-MCD) variant T558PrK (T558X, SEQ ID NO: 22), clicked to PDAz linker; conditions: read-out: KM^app (electrochemical); glucose; 300 mV vs. Ag/AgCl, 100 mM acetate buffer pH=5.0, RT; non-linear fit
# Protocol: as §1, §2, §3
# [5] = target: FGM-S247PDAz: FGM (Burkholderia cepacia FAD-GDH-MCD) variant S247PrK (S247X, SEQ ID NO: 20), clicked to PDAz linker (Burkholderia lata, UniProt Q397F4); conditions: read-out: KM^app (electrochemical); glucose; 300 mV vs. Ag/AgCl, 100 mM acetate buffer pH=5.0, RT; non-linear fit
# Protocol: as §1, §2, §3
smiles,measurement,setting,value
OC[C@H]1OC(O)[C@H](O)[C@@H](O)[C@@H]1O (stereo partly drawn) [glucose],KM^app value times higher for FGM compared to GDH,[1],ca. 3 times
same,catalytic efficiency (k) times higher compared to GDH,"[1]; FGM compared to GDH, D-glucose",more than 3 times
same,Km,[2],1820 ± 180 µM
same,Km,[3],1550 ± 160 µM
same,Km,[4],1580 ± 220 µM
same,Km,[5],1890 ± 100 µM
